Patent publication US20240059671A1, “TYROSINE KINASE 2 (TYK2) DEGRADATION COMPOUNDS AND METHODS OF USE” (CULLGEN (SHANGHAI), INC., priority 2020, published 2024)

Biological target: TYK2 (Homo sapiens, UniProt P29597)
Test: TYK2 protein degradation in MOLT-4 cells by immunoblotting
Assay type: cell-based
Set-up: endogenous in cells; host or cells: MOLT-4
Settings: MOLT-4 cells, 24 hours
Procedure, shortened: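 Percent TYK2 degradation came from densitometry of chemiluminescent immunoblots of RIPA lysates. Before lysis, MOLT-4 cells had been treated for 24 h with each compound at 0.5 or 5 μM.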

TYK2, sequence (P29597 whole entry): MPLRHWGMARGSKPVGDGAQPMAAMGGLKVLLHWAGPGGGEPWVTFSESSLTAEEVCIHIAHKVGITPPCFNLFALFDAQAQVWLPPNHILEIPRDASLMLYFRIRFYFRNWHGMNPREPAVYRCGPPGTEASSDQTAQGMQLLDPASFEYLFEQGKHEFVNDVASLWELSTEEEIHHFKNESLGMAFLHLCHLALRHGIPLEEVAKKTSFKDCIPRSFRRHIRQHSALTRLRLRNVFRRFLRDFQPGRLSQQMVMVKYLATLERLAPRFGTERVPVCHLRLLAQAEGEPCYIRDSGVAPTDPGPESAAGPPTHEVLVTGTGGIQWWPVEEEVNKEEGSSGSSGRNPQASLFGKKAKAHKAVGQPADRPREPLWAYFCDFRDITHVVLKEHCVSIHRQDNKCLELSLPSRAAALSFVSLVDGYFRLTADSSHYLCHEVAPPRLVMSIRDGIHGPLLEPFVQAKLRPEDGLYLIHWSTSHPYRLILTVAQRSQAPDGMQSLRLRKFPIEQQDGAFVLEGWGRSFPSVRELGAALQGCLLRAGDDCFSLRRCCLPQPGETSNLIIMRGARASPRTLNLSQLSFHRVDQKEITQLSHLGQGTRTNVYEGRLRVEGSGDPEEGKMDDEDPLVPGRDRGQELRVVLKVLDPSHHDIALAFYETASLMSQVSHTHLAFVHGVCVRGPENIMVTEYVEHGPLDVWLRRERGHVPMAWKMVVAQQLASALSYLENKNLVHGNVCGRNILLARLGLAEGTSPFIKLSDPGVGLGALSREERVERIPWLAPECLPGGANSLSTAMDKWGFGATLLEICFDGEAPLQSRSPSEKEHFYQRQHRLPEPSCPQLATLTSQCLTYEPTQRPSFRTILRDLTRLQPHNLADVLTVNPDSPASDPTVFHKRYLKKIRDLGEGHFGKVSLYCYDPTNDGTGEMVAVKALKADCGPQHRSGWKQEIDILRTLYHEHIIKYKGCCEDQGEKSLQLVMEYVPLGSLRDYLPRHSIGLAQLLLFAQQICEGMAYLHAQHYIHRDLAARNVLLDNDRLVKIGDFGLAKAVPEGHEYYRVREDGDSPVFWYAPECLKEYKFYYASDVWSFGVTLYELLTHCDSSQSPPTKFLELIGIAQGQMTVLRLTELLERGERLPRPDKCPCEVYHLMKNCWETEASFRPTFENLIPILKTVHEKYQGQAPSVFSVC

TYK2 Degradation (MOLT-4, 0.5 μM)	TYK2 Degradation (MOLT-4, 5 μM)	TYK2 Degradation (0.5 μM) [%]	TYK2 Degradation (5 μM) [%]	SMILES
		≤20	≤20	CNC(=O)c1nnc(NC(=O)C2CC2)cc1Nc1cccc(-c2ncn(CCNC(=O)CCOCCOCCOCCOCCNc3ccc4c(c3)C(=O)N(C3CCC(=O)NC3=O)C4=O)n2)c1OC (stereo not drawn) [CPD-021, 6-(Cyclopropanecarboxamido)-4-((3-(1-(1-((2-(2,6-dioxopiperidin-3-yl)-1,3-dioxoisoindolin-5-yl)amino)-15-oxo-3,6,9,12-tetraoxa-16-azaoctadecan-18-yl)-1H-1,2,4-triazol-3-yl)-2-methoxyphenyl)amino)-N-methylpyridazine-3-carboxamide]
C (C: ≤20% TYK2 degradation)	C (C: ≤20% TYK2 degradation)			CNC(=O)c1nnc(NC(=O)C2CC2)cc1Nc1cccc(-c2ncn(CCNC(=O)CCCCCCCC(=O)N[C@H](C(=O)N3C[C@H](O)C[C@H]3C(=O)NCc3ccc(-c4scnc4C)cc3)C(C)(C)C)n2)c1OC [CPD-080, N^1-(2-(3-(3-((6-(Cyclopropanecarboxamido)-3-(methylcarbamoyl)pyridazin-4-yl)amino)-2-methoxyphenyl)-1H-1,2,4-triazol-1-yl)ethyl)-N^9-((S)-1-((2S,4R)-4-hydroxy-2-((4-(4-methylthiazol-5-yl)benzyl)carbamoyl)pyrrolidin-1-yl)-3,3-dimethyl-1-oxobutan-2-yl)nonanediamide]
		≤20	≤20	CNC(=O)c1nnc(NC(=O)CNC(=O)CCCNc2cccc3c2C(=O)N(C2CCC(=O)NC2=O)C3=O)cc1Nc1cccc(-c2ncn(C)n2)c1OC (stereo not drawn) [CPD-044, 6-(2-(4-((2-(2,6-Dioxopiperidin-3-yl)-1,3-dioxoisoindolin-4-yl)amino)butanamido)acetamido)-4-((2-methoxy-3-(1-methyl-1H-1,2,4-triazol-3-yl)phenyl)amino)-N-methylpyridazine-3-carboxamide]
		≤20	≤20	CNC(=O)c1nnc(NC(=O)CNC(=O)CCOCCOCCOCCC(=O)N[C@H](C(=O)N2C[C@H](O)C[C@H]2C(=O)NCc2ccc(-c3scnc3C)cc2)C(C)(C)C)cc1Nc1cccc(-c2ncn(C)n2)c1OC [CPD-030, 6-((S)-18-((2S,4R)-4-Hydroxy-2-((4-(4-methylthiazol-5-yl)benzyl)carbamoyl)pyrrolidine-1-carbonyl)-19,19-dimethyl-4,16-dioxo-7,10,13-trioxa-3,17-diazaicosanamido)-4-((2-methoxy-3-(1-methyl-1H-1,2,4-triazol-3-yl)phenyl)amino)-N-methylpyridazine-3-carboxamide]
		≤20	≤20	CNC(=O)c1nnc(NC(=O)C2CC2)cc1Nc1cccc(-c2ncn(CCNC(=O)COCCOCC(=O)N[C@H](C(=O)N3C[C@H](O)C[C@H]3C(=O)NCc3ccc(-c4scnc4C)cc3)C(C)(C)C)n2)c1OC [CPD-068, 6-(Cyclopropanecarboxamido)-4-((3-(1-((S)-13-((2S,4R)-4-hydroxy-2-((4-(4-methylthiazol-5-yl)benzyl)carbamoyl)pyrrolidine-1-carbonyl)-14,14-dimethyl-4,11-dioxo-6,9-dioxa-3,12-diazapentadecyl)-1H-1,2,4-triazol-3-yl)-2-methoxyphenyl)amino)-N-methylpyridazine-3-carboxamide]
		≤20	≤20	CNC(=O)c1nnc(NC(=O)C2CC2)cc1Nc1cccc(-c2ncn(CCNC(=O)COCCOCCOCCOCCOCC(=O)N[C@H](C(=O)N3C[C@H](O)C[C@H]3C(=O)NCc3ccc(-c4scnc4C)cc3)C(C)(C)C)n2)c1OC [CPD-073, N^1-(2-(3-(3-((6-(Cyclopropanecarboxamido)-3-(methylcarbamoyl)pyridazin-4-yl)amino)-2-methoxyphenyl)-1H-1,2,4-triazol-1-yl)ethyl)-N^17-((S)-1-((2S,4R)-4-hydroxy-2-((4-(4-methylthiazol-5-yl)benzyl)carbamoyl)pyrrolidin-1-yl)-3,3-dimethyl-1-oxobutan-2-yl)-3,6,9,12,15-pentaoxaheptadecanediamide]

Continued, compound first:

SMILES	TYK2 Degradation (MOLT-4, 0.5 μM)	TYK2 Degradation (MOLT-4, 5 μM)	TYK2 Degradation (0.5 μM) [%]	TYK2 Degradation (5 μM) [%]
CNC(=O)c1nnc(NC(=O)CNC(=O)CCCCCCCNC(=O)C[C@H](NC(=O)[C@@H]2C[C@@H](O)CN2C(=O)[C@@H](NC(=O)C2(F)CC2)C(C)(C)C)c2ccc(-c3scnc3C)cc2)cc1Nc1cccc(-c2ncn(C)n2)c1OC [CPD-092, 6-(2-(8-((S)-3-((2S,4R)-1-((S)-2-(1-Fluorocyclopropane-1-carboxamido)-3,3-dimethylbutanoyl)-4-hydroxypyrrolidine-2-carboxamido)-3-(4-(4-methylthiazol-5-yl)phenyl)propanamido)octanamido)acetamido)-4-((2-methoxy-3-(1-methyl-1H-1,2,4-triazol-3-yl)phenyl)amino)-N-methylpyridazine-3-carboxamide]	C (C: ≤20% TYK2 degradation)	C (C: ≤20% TYK2 degradation)		
CNC(=O)c1nnc(NC(=O)CNC(=O)CNC(=O)C[C@H](NC(=O)[C@@H]2C[C@@H](O)CN2C(=O)[C@@H](NC(=O)C2(F)CC2)C(C)(C)C)c2ccc(-c3scnc3C)cc2)cc1Nc1cccc(-c2ncn(C)n2)c1OC [CPD-086, 6-(2-(2-((S)-3-((2S,4R)-1-((S)-2-(1-Fluorocyclopropane-1-carboxamido)-3,3-dimethylbutanoyl)-4-hydroxypyrrolidine-2-carboxamido)-3-(4-(4-methylthiazol-5-yl)phenyl)propanamido)acetamido)acetamido)-4-((2-methoxy-3-(1-methyl-1H-1,2,4-triazol-3-yl)phenyl)amino)-N-methylpyridazine-3-carboxamide]	C (C: ≤20% TYK2 degradation)			
CNC(=O)c1nnc(NC(=O)C2CC2)cc1Nc1cccc(-c2ncn(CCNC(=O)CCCC(=O)N[C@H](C(=O)N3C[C@H](O)C[C@H]3C(=O)NCc3ccc(-c4scnc4C)cc3)C(C)(C)C)n2)c1OC [CPD-076, N^1-(2-(3-(3-((6-(Cyclopropanecarboxamido)-3-(methylcarbamoyl)pyridazin-4-yl)amino)-2-methoxyphenyl)-1H-1,2,4-triazol-1-yl)ethyl)-N^5-((S)-1-((2S,4R)-4-hydroxy-2-((4-(4-methylthiazol-5-yl)benzyl)carbamoyl)pyrrolidin-1-yl)-3,3-dimethyl-1-oxobutan-2-yl)glutaramide]			≤20	≤20
CNC(=O)c1nnc(NC(=O)CNC(=O)CCCCCCCCCC(=O)N[C@H](C(=O)N2C[C@H](O)C[C@H]2C(=O)NCc2ccc(-c3scnc3C)cc2)C(C)(C)C)cc1Nc1cccc(-c2ncn(C)n2)c1OC [CPD-041, N^1—((S)-1-((2S,4R)-4-Hydroxy-2-((4-(4-methylthiazol-5-yl)benzyl)carbamoyl)pyrrolidin-1-yl)-3,3-dimethyl-1-oxobutan-2-yl)-N^11-(2-((5-((2-methoxy-3-(1-methyl-1H-1,2,4-triazol-3-yl)phenyl)amino)-6-(methylcarbamoyl)pyridazin-3-yl)amino)-2-oxoethyl)undecanediamide]			50	30
CNC(=O)c1nnc(NC(=O)C2CC2)cc1Nc1cccc(-c2ncn(CCNC(=O)CCCCCCC(=O)N[C@H](C(=O)N3C[C@H](O)C[C@H]3C(=O)NCc3ccc(-c4scnc4C)cc3)C(C)(C)C)n2)c1OC [CPD-079, N^1-(2-(3-(3-((6-(Cyclopropanecarboxamido)-3-(methylcarbamoyl)pyridazin-4-yl)amino)-2-methoxyphenyl)-1H-1,2,4-triazol-1-yl)ethyl)-N^8-((S)-1-((2S,4R)-4-hydroxy-2-((4-(4-methylthiazol-5-yl)benzyl)carbamoyl)pyrrolidin-1-yl)-3,3-dimethyl-1-oxobutan-2-yl)octanediamide]	C (C: ≤20% TYK2 degradation)	C (C: ≤20% TYK2 degradation)		
CNC(=O)c1nnc(NC(=O)CNC(=O)CCCCNC(=O)C[C@H](NC(=O)[C@@H]2C[C@@H](O)CN2C(=O)[C@@H](NC(=O)C2(F)CC2)C(C)(C)C)c2ccc(-c3scnc3C)cc2)cc1Nc1cccc(-c2ncn(C)n2)c1OC [CPD-089, 6-(2-(5-((S)-3-((2S,4R)-1-((S)-2-(1-Fluorocyclopropane-1-carboxamido)-3,3-dimethylbutanoyl)-4-hydroxypyrrolidine-2-carboxamido)-3-(4-(4-methylthiazol-5-yl)phenyl)propanamido)pentanamido)acetamido)-4-((2-methoxy-3-(1-methyl-1H-1,2,4-triazol-3-yl)phenyl)amino)-N-methylpyridazine-3-carboxamide]	C (C: ≤20% TYK2 degradation)	C (C: ≤20% TYK2 degradation)		
CNC(=O)c1nnc(NC(=O)CNC(=O)CCCC(=O)N[C@H](C(=O)N2C[C@H](O)C[C@H]2C(=O)NCc2ccc(-c3scnc3C)cc2)C(C)(C)C)cc1Nc1cccc(-c2ncn(C)n2)c1OC [CPD-035, N^1—((S)-1-((2S,4R)-4-Hydroxy-2-((4-(4-methylthiazol-5-yl)benzyl)carbamoyl)pyrrolidin-1-yl)-3,3-dimethyl-1-oxobutan-2-yl)-N^5-(2-((5-((2-methoxy-3-(1-methyl-1H-1,2,4-triazol-3-yl)phenyl)amino)-6-(methylcarbamoyl)pyridazin-3-yl)amino)-2-oxoethyl)glutaramide]			≤20	≤20
CNC(=O)c1nnc(Nc2ccc(N3CCN(C(=O)CCCC(=O)N[C@H](C(=O)N4C[C@H](O)C[C@H]4C(=O)NCc4ccc(-c5scnc5C)cc4)C(C)(C)C)CC3)cn2)cc1Nc1cccc(-c2ncn(C)n2)c1OC [CPD-097, 6-((5-(4-(5-(((S)-1-((2S,4R)-4-Hydroxy-2-((4-(4-methylthiazol-5-yl)benzyl)carbamoyl)pyrrolidin-1-yl)-3,3-dimethyl-1-oxobutan-2-yl)amino)-5-oxopentanoyl)piperazin-1-yl)pyridin-2-yl)amino)-4-((2-methoxy-3-(1-methyl-1H-1,2,4-triazol-3-yl)phenyl)amino)-N-methylpyridazine-3-carboxamide]	B (B: <60% TYK2 degradation, and >20% TYK2 degradation)	C (C: ≤20% TYK2 degradation)		
